We go through two molecules from patent US10660578B2, “Combining electronic monitoring with inhaled pharmacological therapy to manage cardiac arrhythmias including atrial fibrillation” (InCarda Therapeutics, Inc., priority 2016, dated 2020).

One data set relates to atrial fibrillation. Nature of the data set: Administration of diltiazem by inhalation in atrial fibrillation. The class given is in vivo. The text has this:
Inhalation avoids the initial dilution of drug in the body as compared to intravenous or oral dosing. Inhalation also avoids first-pass metabolism, such as hepatic metabolism. For instance, calcium channel blockers, such as diltiazem, undergo significant hepatic metabolism when taken orally. Inhalation allows rapid delivery of the parent diltiazem compound to the heart as a bolus. […] Thus, administration by inhalation of diltiazem is useful for treating both atrial fibrillation and supraventricular tachycardia (SVT). In contrast, administration by IV of diltiazem is typically only used for converting SVT to normal sinus rhythm and in atrial fibrillation to reduce heart rate (not for converting to normal sinus rhythm). Inhalation also avoids red blood cell metabolism. For instance, the reduced dilution and short route associated with inhalation reduces red blood cell metabolism of esmolol. Inhalation may also avoid reduced blood pressure and fainting. For instance, IV administration of beta blockers, such as esmolol, and/or Class I antiarrhythmics such as flecainide, may reduce mean arterial blood pressure (MAP). Inhalation can allow rapid delivery of esmolol and/or flecainide without reducing MAP. […]

A short description of data set [1]: Assessment of different inhalers with flecainide acetate (FA) solution at 30 mg/ml. It counts as physicochemical. The method, then:
Different inhalers were then tested to assess compatibility of material to the different materials of construction and different types of inhalers (Table 2).
The Trek S from PARI was able to deliver the same dose in about 3 minutes.

Data set [2] concerns animal displaying atrial fibrillation. Description: Treatment of atrial fibrillation by intra-tracheal flecainide, monitored by smartphone ECG and Prucka System. It counts as in vivo. Particulars: intra-tracheal administration of 0.75 mg/kg; animal in atrial fibrillation. The procedure:
An exemplary smart phone app was installed on a smartphone in order to monitor the efficacy of FA at ceasing incidence of atrial fibrillation. The smartphone app allowed for communication between the smart phone and an electronic monitoring chip used to produce an ECG.
The smart phone device was then used to monitor the treatment efficacy of an intra-tracheal administration of 0.75 mg/kg flecainide in treating atrial fibrillation. FIG. 9 depicts an exemplary ECG produced from a smartphone as compared to a Prucka System in an animal displaying atrial fibrillation. Again, the traces show excellent correlation between the two devices.

In a further data set the test system is PAF. Particulars: cited from earlier work.

`COc1ccc([C@@H]2Sc3ccccc3N(CCN(C)C)C(=O)[C@@H]2OC(C)=O)cc1` [diltiazem]: in the data set with atrial fibrillation, the “Effect on atrial fibrillation rhythm” value is on record as “converted atrial fibrillation to normal sinus rhythm” and the “Effect on heart rate” value is reported as “reduced heart rate”.
On to `O=C(NCC1CCCCN1)c1cc(OCC(F)(F)F)ccc1OCC(F)(F)F` (stereo not shown) [flecainide], for which the “Time to deliver a 30-40 mg dose” value in data set [1] (Pari e-rapid or Lumiscope inhalers, 30-40 mg dose) is recorded as “less than 2 minutes”; in data set [1] (Trek S from PARI, same 30-40 mg dose) it was “about 3 minutes”. In data set [2], the “Effect on atrial fibrillation (ECG rhythm)” value is given as “return to sinus rhythm”. Besides, the “Average time to terminate the PAF” value in the data set on PAF (oral bolus of 300 mg (max per day) at one time) is 100 min. Moreover, the “Effectiveness of oral flecainide” value in the data set on PAF (oral) is on record as 30-50%.
